Ten molecules from the Kinase Knowledgebase extract (Sharma et al. 2016) can be followed below.

In the assay the target is EGFR (UniProt P00533).
Sequence of EGFR (P00533 whole entry, looked up): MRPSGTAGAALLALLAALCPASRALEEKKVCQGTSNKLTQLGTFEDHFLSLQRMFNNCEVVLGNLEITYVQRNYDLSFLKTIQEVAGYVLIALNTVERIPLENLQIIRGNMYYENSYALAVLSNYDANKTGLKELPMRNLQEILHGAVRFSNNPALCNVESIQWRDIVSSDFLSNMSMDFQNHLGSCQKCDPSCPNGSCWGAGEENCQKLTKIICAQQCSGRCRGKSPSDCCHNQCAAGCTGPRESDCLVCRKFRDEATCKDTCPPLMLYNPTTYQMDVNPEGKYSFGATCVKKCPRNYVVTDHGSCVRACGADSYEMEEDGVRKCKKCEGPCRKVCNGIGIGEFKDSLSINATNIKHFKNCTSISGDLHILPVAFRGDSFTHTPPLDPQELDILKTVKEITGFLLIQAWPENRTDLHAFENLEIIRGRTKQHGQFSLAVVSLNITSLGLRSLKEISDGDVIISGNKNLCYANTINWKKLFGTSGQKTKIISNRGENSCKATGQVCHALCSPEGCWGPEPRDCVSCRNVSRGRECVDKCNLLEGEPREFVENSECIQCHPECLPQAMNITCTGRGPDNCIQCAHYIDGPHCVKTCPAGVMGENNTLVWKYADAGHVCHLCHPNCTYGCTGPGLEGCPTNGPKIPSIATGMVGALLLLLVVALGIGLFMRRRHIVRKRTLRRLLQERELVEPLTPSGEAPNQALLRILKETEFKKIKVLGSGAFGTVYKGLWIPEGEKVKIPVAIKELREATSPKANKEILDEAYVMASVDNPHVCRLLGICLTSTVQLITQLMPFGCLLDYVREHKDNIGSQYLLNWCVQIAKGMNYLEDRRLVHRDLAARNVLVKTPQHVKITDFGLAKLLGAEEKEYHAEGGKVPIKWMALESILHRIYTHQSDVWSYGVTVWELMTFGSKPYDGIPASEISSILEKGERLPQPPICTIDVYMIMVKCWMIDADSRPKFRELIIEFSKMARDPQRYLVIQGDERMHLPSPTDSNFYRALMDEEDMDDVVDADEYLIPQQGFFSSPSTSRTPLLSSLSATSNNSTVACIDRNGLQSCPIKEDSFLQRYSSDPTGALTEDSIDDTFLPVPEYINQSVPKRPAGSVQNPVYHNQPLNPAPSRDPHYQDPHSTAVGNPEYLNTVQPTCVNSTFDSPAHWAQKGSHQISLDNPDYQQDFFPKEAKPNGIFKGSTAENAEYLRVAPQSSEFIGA
Consider `N[C@@H](CSc1cc(C[C@H](N)C(=O)O)cc(O)c1O)C(=O)O`, for which the inhibition stood at 2.9.
In the case of `N[C@H](Cc1cc(O)c(O)c(SC[C@H](N)C(=O)O)c1)C(=O)O`, the inhibition turned out to be 0.
Molecule `NCCC(=O)N[C@@H](Cc1cc(O)c(O)c(SC[C@H](NC(=O)CC[C@H](N)C(=O)O)C(=O)NCC(=O)O)c1)C(=O)O` showed an inhibition of 2.2.
Molecule `NCCc1cc(SC[C@H](NC(=O)CC[C@H](N)C(=O)O)C(=O)NCC(=O)O)c(O)c(O)c1SC[C@@H](NC(=O)CC[C@@H](N)C(=O)O)C(=O)NCC(=O)O` yielded an inhibition of 7.6.
With `NCCC(=O)N[C@H](Cc1cc(O)c(O)c(SC[C@H](NC(=O)CC[C@H](N)C(=O)O)C(=O)NCC(=O)O)c1)C(=O)O` the figure was 8.2.
In the case of `N[C@@H](CCC(=O)N[C@@H](CSc1cc(C[C@H](N)C(=O)O)cc(O)c1O)C(=O)NCC(=O)O)C(=O)O`, the inhibition worked out at 4.4.
For the molecule `N[C@H](Cc1cc(O)c(O)c(SC[C@H](NC(=O)CC[C@H](N)C(=O)O)C(=O)NCC(=O)O)c1)C(=O)O`, the inhibition came out at 0.
As to `C[C@@](Cc1cc(O)c(O)c(SC[C@H](NC(=O)CC[C@H](N)C(=O)O)C(=O)NCC(=O)O)c1)(NC(=O)CCN)C(=O)O`, the inhibition came to 5.2.
`NCCc1cc(O)c(O)c(SC[C@H](NC(=O)CC[C@H](N)C(=O)O)C(=O)NCC(=O)O)c1` returned an inhibition of 1.
Take `NCCC(=O)NCCc1cc(O)c(O)c(SC[C@H](NC(=O)CC[C@H](N)C(=O)O)C(=O)NCC(=O)O)c1`: the inhibition was determined as 4.9.
